Assays:
Puccinia recondita [1] = assay: Protective activity against brown rust of wheat; assay type: in vivo; conditions: wheat seedlings, efficacy in % of untreated control
Puccinia recondita [2] = assay: Curative activity against brown rust of wheat; assay type: in vivo; conditions: wheat seedlings, efficacy in % of untreated control, 7 days
Botrytis cinerea = assay: Activity against gray mold on bell pepper leaves, 1 day protective use; assay type: in vivo; conditions: 16 mg/l; bell pepper seedlings, efficacy in % of untreated control, evaluated after 5 days
Phytophthora infestans = assay type: cell-based; conditions: 0.25 mg/l; microtiter plate, absorption at 405 nm on day 7
Pyrenophora teres = assay: Activity against net blotch of barley, 1 day protective application; assay type: in vivo; conditions: barley seedlings, efficacy in % of untreated control, evaluated after 6 days

In the case of `Cn1cc(C(=O)Nc2ccccc2-c2ccc(C(F)(F)F)cc2)c(C(F)F)n1` [No. I.2, N-(4′-trifluoromethylbiphenyl-2-yl)-3-difluoromethyl-1-methyl-1H-pyrazole-4-carboxamide], the melting point is reported as 164 to 165 °C, the “Observed efficacy (% of untreated control)” value (Puccinia recondita [1]; 16 mg/l) is reported as 0% and the “Observed activity (efficacy, % of untreated control)” value (Puccinia recondita [2]; 0.25 mg/l) is reported as 0%. The “Observed activity (efficacy, % of untreated control)” value (Puccinia recondita [2]; 1 mg/l) was 56% and the “Observed efficacy (% of untreated control)” value (Botrytis cinerea) was 70%.
`Cn1nc(Cl)c(C(=O)Nc2ccccc2-c2ccc(C(F)(F)F)cc2)c1C(F)F` [No. I.8, N-(4′-trifluoromethylbiphenyl-2-yl)-1-methyl-3-chlorodifluoromethyl-1H-pyrazole-4-carboxamide] showed a melting point of 193 to 196 °C.
In the case of `Cc1nn(C)cc1C(=O)Nc1ccccc1-c1ccc(C(F)(F)F)cc1` [No. I.6, N-(4′-trifluoromethylbiphenyl-2-yl)-1,3-dimethyl-1H-pyrazole-4-carboxamide], the melting point is reported as 174 to 177 °C.
With `Cn1cc(C(=O)Nc2ccccc2-c2ccc(C(F)(F)F)cc2)c(C(F)(F)F)n1` [No. I.1, N-(4′-trifluoromethylbiphenyl-2-yl)-1-methyl-3-trifluoromethyl-1H-pyrazole-4-carboxamide] the melting point was 175 to 177 °C, the “Observed activity (% infection)” value (Phytophthora infestans) was 3% and the Observed activity (Pyrenophora teres; 0.25 mg/l) was 11%. For the same compound, the Observed activity (Pyrenophora teres; 1 mg/l) was 56%.
`Cn1nc(C(F)(F)F)c(C(=O)Nc2ccccc2-c2ccc(C(F)(F)F)cc2)c1F` [No. I.3, N-(4′-trifluoromethylbiphenyl-2-yl)-1-methyl-3-trifluoromethyl-5-fluoro-1H-pyrazole-4-carboxamide] gave a melting point of 170 to 173 °C.
Compound “zinc ammoniate ethylenebis(dithiocarbamate) [metiram]” has an Observed activity (Pyrenophora teres; 16 mg/l) of 0%.
In the case of `N#Cc1c(Cl)c(Cl)c(Cl)c(C#N)c1Cl` [chlorthalonil, 2,4,5,6-tetrachloroisophthalonitrile, reference compound], the “Observed activity (efficacy, % of untreated control)” value (Puccinia recondita [2]; 16 mg/l) is reported as 0% and the Observed activity (Pyrenophora teres; 16 mg/l) is reported as 0%.
With `Fc1ccc([C@]2(Cn3cncn3)O[C@H]2c2ccccc2Cl)cc1` (racemic) [epoxiconazole, (2RS,3SR)-1-[3-(2-chlorophenyl)-2,3-epoxy-2-(4-fluorophenyl)propyl]-1H-1,2,4-triazole, reference compound] the “Observed activity (efficacy, % of untreated control)” value (Puccinia recondita [2]; 0.063 mg/l) was 0%.
For `COc1cc(C)c(C(=O)c2c(OC)ccc(Br)c2C)c(OC)c1OC` [metrafenone, 3′-bromo-2,3,4,6′-tetramethoxy-2′,6-dimethylbenzophenone], the “Observed efficacy (% of untreated control)” value (Puccinia recondita [1]; 63 mg/l) was 0% and the Observed activity (Pyrenophora teres; 4 mg/l) was 0%.
In the case of `CC1(C)CC/C(=C\c2ccc(Cl)cc2)C1(O)Cn1cncn1` (stereo not shown) [triticonazole, (5E)-5-[(4-chlorophenyl)methylene]-2,2-dimethyl-1-(1H-1,2,4-triazol-1-ylmethyl)cyclopentanol, reference compound], the “Observed activity (% infection)” value (Phytophthora infestans) is reported as 0%.
`Cn1cc(C(=O)Nc2ccccc2-c2ccc(C(F)(F)F)cc2)c(CF)n1` [No. I.7, N-(4′-trifluoromethylbiphenyl-2-yl)-1-methyl-3-fluoromethyl-1H-pyrazole-4-carboxamide] showed a melting point of 156 to 158 °C.
In the case of `COC(=O)N(OC)c1ccccc1COc1ccn(-c2ccc(Cl)cc2)n1` [pyraclostrobin, methyl N-{2-[1-(4-chlorophenyl)-1H-pyrazol-3-yloxymethyl]phenyl}(N-methoxy)carbamate, reference compound], the “Observed efficacy (% of untreated control)” value (Botrytis cinerea) is reported as 10%.
For `COc1ccc(C(=CC(=O)N2CCOCC2)c2ccc(Cl)cc2)cc1OC` [dimethomorph, 3-(4-chlorophenyl)-3-(3,4-dimethoxyphenyl)-1-morpholin-4-yl-propenone], the “Observed efficacy (% of untreated control)” value (Puccinia recondita [1]; 63 mg/l) was 0% and the Observed activity (Pyrenophora teres; 16 mg/l) was 0%.
With `Cc1nn(C)c(Cl)c1C(=O)Nc1ccccc1-c1ccc(C(F)(F)F)cc1` [No. I.5, N-(4′-trifluoromethylbiphenyl-2-yl)-1,3-dimethyl-5-chloro-1H-pyrazole-4-carboxamide] the melting point was 173 to 175 °C.
Work on `CC1CCN(c2c(-c3c(F)cc(F)cc3F)c(Cl)nc3ncnn23)CC1` [5-chloro-7-(4-methylpiperidin-1-yl)-6-(2,4,6-trifluorophenyl)-[1,2,4]triazolo[1,5-a]pyrimidine] yielded an Observed activity (Pyrenophora teres; 1 mg/l) of 44%.
